Among the data in PubChem BioAssay (NCI) are GI50 and TGI values, retold here.

The structures appear in SMILES notation.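 How tested: cells in 96-well plates exposed to compound for 48 hours at five concentrations. At the GI50, growth is halved. TGI denotes the concentration required for complete inhibition of growth.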

What all share (assay): inhibition of tumour cell growth, NCI panel, 48 h
The test system of assay [1] is 786-0 renal.
The test system of assay [2] is A498 renal.
The subject of assay [3] is ACHN renal.
Assay [4] deals with M14 melanoma.
The subject of assay [5] is SF-539 CNS.
For assay [6], the system named is SN12C renal.
Assay [7] concerns SNB-75 CNS.
Assay [8] deals with SR leukemia.
In assay [9] the test system is SW-620 colon.
The test system of assay [10] is UACC-62 melanoma.

As to `COc1cc(-c2cc(C(=O)N3CCN(C(=O)c4ccccc4NCc4cccs4)CC3)nc3cc(-c4ccccc4)nn23)cc(OC)c1OC`, the GI50 is 11.4 µM in assay [1]; 8.44 µM in [2]; 4.93 µM in assay [3]; 5.91 µM in assay [4]; 9.85 µM in assay [5]; 29.1 µM in [6]. In addition, the GI50 is 3.32 µM in assay [7], 3.31 µM in assay [8], 4.7 µM in assay [9] and 2.8 µM in assay [10]. The TGI in assay [1], in assay [2], in assay [3], in assay [4], in assay [5] and in assay [6] was above 100 µM throughout. Besides, the TGI in [7] was 27.6 µM; in assay [8] it was above 100 µM; in [9], above 100 µM; in assay [10] it was above 100 µM.

For `O=C(/C=C/c1ccco1)c1cccc(Nc2nc(Nc3ccccc3)nc(Nc3ccccc3)n2)c1`, the GI50 is 8.49 µM in assay [1]; 0.444 µM in assay [2]; 30.5 µM in [3]; 37.7 µM in assay [4]; 44.5 µM in [5]; 35 µM in [6]. For the same compound, the GI50 in [7] is 2.16 µM; in assay [8], 5.01 µM; in [9], 18.2 µM; in assay [10], 48.8 µM. In addition, the TGI was above 100 µM in assay [1]; 1.77 µM in assay [2]; above 100 µM in assay [3]; above 100 µM in assay [4]; above 100 µM in assay [5]; above 100 µM in assay [6]. In addition, the TGI in assay [7] is above 69.5 µM; in [8] it was above 24.1 µM; in assay [9], above 100 µM; in [10], above 100 µM.

On to `O=c1c(-c2nc3ccccc3[nH]2)cc2ccccc2n1Cc1cn(Cc2ccc(F)cc2)nn1`, for which the GI50 in assay [1] is 0.415 µM; in [2], 0.127 µM; in assay [3], 0.492 µM; in [4] it was 0.0568 µM; in assay [5], 0.137 µM; in assay [6], 0.203 µM. The GI50 was below 0.0149 µM in assay [7], 0.0732 µM in [8], 0.0672 µM in assay [9] and 0.437 µM in [10]. Further, the TGI in assay [1] was 11.3 µM; in [2], 0.716 µM; in [3], above 40.5 µM; in [4], 0.39 µM; in assay [5], 0.636 µM; in assay [6], above 100 µM. For the same compound, the TGI in assay [7] is 0.113 µM; in assay [8], above 100 µM; in [9], above 100 µM; in assay [10], 50.7 µM.

Regarding `CN(CC(=O)O)Cc1c[nH]c2ccccc12`, the TGI in assay [1], in [2], in [3], in [4], in [5] and in assay [6] was above 100 µM in each case. For the same compound, the TGI in assay [7], in [8], in assay [9] and in [10] was above 100 µM in each case.

Take `COc1cc(/C=C/C(=O)c2ccc(SC)cc2)cc(OC)c1OC`: the GI50 was 6.43 µM in assay [1]; 0.936 µM in [2]; 6.98 µM in assay [3]; 10.5 µM in assay [4]; 11.7 µM in assay [5]; 3.17 µM in assay [6]. Also, the GI50 in assay [7] is 6.08 µM; in assay [8], 3.56 µM; in assay [9], 6.89 µM; in [10], 3.46 µM. In addition, the TGI amounted to 20.4 µM in [1]; 17.1 µM in [2]; 19.5 µM in [3]; 22.4 µM in assay [4]; 27.2 µM in [5]; 8.98 µM in assay [6]. Further, the TGI in assay [7] is 20.5 µM; in [8] it was above 100 µM; in assay [9], 21.6 µM; in assay [10], 13.5 µM.

As for `COc1ccc(S(=O)(=O)Nc2c(/C=C\c3cc(OC)c(OC)c(OC)c3)ccc(OC)c2O)cc1OC`, the GI50 in assay [1] was 0.42 µM; in assay [2], 0.0413 µM; in assay [3], 0.526 µM; in assay [4], 0.205 µM; in [5], 0.0856 µM; in assay [6], 0.484 µM. Moreover, the GI50 in assay [7] was 0.251 µM; in [8], 0.0661 µM; in assay [9], 0.167 µM; in assay [10], 0.053 µM. In addition, the TGI in [1] is above 100 µM; in assay [2] it was 0.291 µM; in [3] it was above 100 µM; in [4], above 100 µM; in [5], 0.457 µM; in assay [6], above 100 µM. Further, the TGI in assay [7] is above 100 µM; in assay [8] it was above 75.9 µM; in [9], above 100 µM; in assay [10], above 100 µM.

In the case of `CCN(CC)[C@@H]1c2cc3c(cc2C(c2cc(OC)c(O)c(OC)c2)C2C(=O)CO[C@@H]21)OCO3` (stereo not given in full), the TGI in assay [1], in assay [2], in assay [3], in assay [4], in [5] and in [6] was above 100 µM each time. In addition, the TGI in [7], in [8], in assay [9] and in assay [10] was above 100 µM in each case.

For the compound `Nc1c(S(=O)(=O)O)cc2c(c1Cl)C(=O)c1ccccc1C2=O`, the GI50 in assay [1], in [2], in [3], in assay [4], in [5] and in [6] was above 100 µM in each case. Also, the GI50 in assay [7], in [8], in assay [9] and in assay [10] was above 100 µM each time. The TGI in [1], in [2], in assay [3], in assay [4], in assay [5] and in assay [6] was above 100 µM in each case. Besides, the TGI in assay [7], in [8], in [9] and in [10] was above 100 µM each time.
